Reference: US9783532B2, “Molecules having certain pesticidal utilities, and intermediates, compositions, and processes related thereto” (Dow AgroSciences LLC, priority 2013, dated 2017)

Assays:
[1] = system: Beet Armyworm (Spodoptera exigua) ("BAW"); test: Bioassay on beet armyworm (BAW), 128-well diet tray assay; format: in vivo; conditions: Table ABC (FB), activity rating class, read-out: BAW (Biological Results, Insect species)
Procedure: (§1) Certain molecules disclosed in this document were tested against BAW and CEW using procedures described in the following examples. In the reporting of the results, the “BAW & CL Rating Table” was used (See Table Section). BIOASSAYS ON BAW
Bioassays on BAW were conducted using a 128-well diet tray assay. one to five second instar BAW larvae were placed in each well (3 mL) of the diet tray that had been previously filled with 1 mL of artificial diet to which 50 μg/cm^2 of the test compound (dissolved in 50 μL of 90:10 acetone-water mixture) had been applied (to each of eight wells) and then allowed to dry. Trays were covered with a clear self-adhesive cover and held at 25° C., 14:10 light-dark for five to seven days. Percent mortality was recorded for the larvae in each well; activity in the eight wells was then averaged. The results are indicated in the table entitled “Table ABC: Biological Results” (See Table Section).

[2] = system: Cabbage Looper (Trichoplusia ni) ("CL"); test: Bioassay on cabbage looper (CL), 128-well diet tray assay; format: in vivo; conditions: Table ABC (FB), activity rating class, read-out: CL (Biological Results, Insect species)
Procedure: as §1
Bioassays on CL were conducted using a 128-well diet tray assay. one to five second instar CL larvae were placed in each well (3 mL) of the diet tray that had been previously filled with 1 mL of artificial diet to which 50 μg/cm^2 of the test compound (dissolved in 50 μL of 90:10 acetone-water mixture) had been applied (to each of eight wells) and then allowed to dry. Trays were covered with a clear self-adhesive cover and held at 25° C., 14:10 light-dark for five to seven days. Percent mortality was recorded for the larvae in each well; activity in the eight wells was then averaged. The results are indicated in the table entitled “Table ABC: Biological Results” (See Table Section).

Cc1ccc(C(C)C)c(N2C(=O)CS/C2=N\C(=O)NCCc2ccc(-c3ncn(-c4ccc(OC(F)(F)F)cc4)n3)cc2F)c1 [FB8, (Z)-1-(2-fluoro-4-(1-(4-(trifluoromethoxy)phenyl)-1H-1,2,4-triazol-3-yl)phenethyl)-3-(3-(2-isopropyl-5-methylphenyl)-4-oxothiazolidin-2-ylidene)urea]
pest or weed control at 50 µg/cm2 [1]: 50 to 100% | pest or weed control at 50 µg/cm2 [2]: 50 to 100%

COc1ccc(C(C)C)c(N2C(=O)CS/C2=N\C(=O)NCCc2ccc(-c3ncn(-c4ccc(OC(F)(F)F)cc4)n3)cc2F)c1 [FB9, (Z)-1-(2-fluoro-4-(1-(4-(trifluoromethoxy)phenyl)-1H-1,2,4-triazol-3-yl)phenethyl)-3-(3-(2-isopropyl-5-methoxyphenyl)-4-oxothiazolidin-2-ylidene)urea]
pest or weed control at 50 µg/cm2 [1]: 50 to 100% | pest or weed control at 50 µg/cm2 [2]: 50 to 100%

CCc1ccccc1-n1c(=O)n(CC)s/c1=N\C(=O)NCCc1ccc(-c2ncn(-c3ccc(OC(F)(F)F)cc3)n2)cc1 [FB10, (Z)-1-(2-ethyl-4-(2-ethylphenyl)-3-oxo-1,2,4-thiadiazolidin-5-ylidene)-3-(4-(1-(4-(trifluoromethoxy)phenyl)-1H-1,2,4-triazol-3-yl)phenethyl)urea]
pest or weed control at 50 µg/cm2 [1]: 50 to 100% | pest or weed control at 50 µg/cm2 [2]: 50 to 100%

CCn1s/c(=N\C(=O)NCCc2ccc(-c3ncn(-c4ccc(OC(F)(F)F)cc4)n3)cc2)n(-c2ccc(OC)cc2C(C)C)c1=O [FB11, (Z)-1-(2-ethyl-4-(2-isopropyl-4-methoxyphenyl)-3-oxo-1,2,4-thiadiazolidin-5-ylidene)-3-(4-(1-(4-(trifluoromethoxy)phenyl)-1H-1,2,4-triazol-3-yl)phenethyl)urea]
pest or weed control at 50 µg/cm2 [1]: 0 to 50% | pest or weed control at 50 µg/cm2 [2]: 50 to 100%

CCn1s/c(=N\C(=O)NCCc2ccc(-c3ncn(-c4ccc(OC(F)(F)F)cc4)n3)cc2)n(-c2cc(F)ccc2C(C)C)c1=O [FB12, (Z)-1-(2-ethyl-4-(5-fluoro-2-isopropylphenyl)-3-oxo-1,2,4-thiadiazolidin-5-ylidene)-3-(4-(1-(4-(trifluoromethoxy)phenyl)-1H-1,2,4-triazol-3-yl)phenethyl)urea]
pest or weed control at 50 µg/cm2 [1]: 50 to 100% | pest or weed control at 50 µg/cm2 [2]: 50 to 100%

CCn1s/c(=N\C(=O)NCCc2ccc(-c3ncn(-c4ccc(OC(F)(F)F)cc4)n3)cc2)n(-c2ccc(F)cc2C(C)C)c1=O [FB13, (Z)-1-(2-ethyl-4-(4-fluoro-2-isopropylphenyl)-3-oxo-1,2,4-thiadiazolidin-5-ylidene)-3-(4-(1-(4-(trifluoromethoxy)phenyl)-1H-1,2,4-triazol-3-yl)phenethyl)urea]
pest or weed control at 50 µg/cm2 [1]: 0 to 50% | pest or weed control at 50 µg/cm2 [2]: 50 to 100%

CCn1s/c(=N\C(=O)NCCc2ccc(-c3ncn(-c4ccc(OC(F)(F)F)cc4)n3)cc2)n(-c2ccccc2C(C)C)c1=O [FB14]
pest or weed control at 50 µg/cm2 [1]: 50 to 100% | pest or weed control at 50 µg/cm2 [2]: 50 to 100%

Cc1ccc(C(C)C)c(N2C(=O)CS/C2=N\C(=O)NC2CCCCC2c2ccc(-c3ncn(-c4ccc(OC(F)(F)F)cc4)n3)cc2)c1 (stereo not shown) [FB15, (Z)-1-(3-(2-isopropyl-5-methylphenyl)-4-oxothiazolidin-2-ylidene)-3-(2-(4-(1-(4-(trifluoromethoxy)phenyl)-1H-1,2,4-triazol-3-yl)phenyl)cyclohexyl)urea]
pest or weed control at 50 µg/cm2 [1]: 50 to 100% | pest or weed control at 50 µg/cm2 [2]: 50 to 100%

Cc1ccccc1NC(=S)NC(=O)NCc1cccc(-c2ncn(-c3ccc(OC(F)(F)F)cc3)n2)c1 [FB18, 1-(o-tolylcarbamothioyl)-3-[[3-[1-[4-(trifluoromethoxy)phenyl]-1H-1,2,4-triazol-3-yl]phenyl]methyl]urea]
pest or weed control at 50 µg/cm2 [1]: 50 to 100% | pest or weed control at 50 µg/cm2 [2]: 50 to 100%

COc1ccc(NC(=S)NC(=O)NCc2cccc(-c3ncn(-c4ccc(OC(F)(F)F)cc4)n3)c2)c(C)c1 [FB19, 1-[(4-methoxy-2-methyl-phenyl)carbamothioyl]-3-[[3-[1-[4-(trifluoromethoxy)phenyl]-1H-1,2,4-triazol-3-yl]phenyl]methyl]urea]
pest or weed control at 50 µg/cm2 [1]: 50 to 100% | pest or weed control at 50 µg/cm2 [2]: 50 to 100%

CCc1ccccc1NC(=S)NC(=O)NCc1cccc(-c2ncn(-c3ccc(OC(F)(F)F)cc3)n2)c1 [FB20, 1-[(2-ethylphenyl)carbamothioyl]-3-[[3-[1-[4-(trifluoromethoxy)phenyl]-1H-1,2,4-triazol-3-yl]phenyl]methyl]urea]
pest or weed control at 50 µg/cm2 [1]: 50 to 100% | pest or weed control at 50 µg/cm2 [2]: 50 to 100%

CCc1cccc(C)c1NC(=S)NC(=O)NCc1cccc(-c2ncn(-c3ccc(OC(F)(F)F)cc3)n2)c1 [FB21, 1-[(2-ethyl-6-methyl-phenyl)carbamothioyl]-3-[[3-[1-[4-(trifluoromethoxy)phenyl]-1H-1,2,4-triazol-3-yl]phenyl]methyl]urea]
pest or weed control at 50 µg/cm2 [1]: 50 to 100% | pest or weed control at 50 µg/cm2 [2]: 50 to 100%

CC(C)c1ccccc1NC(=S)NC(=O)NCc1cccc(-c2ncn(-c3ccc(OC(F)(F)F)cc3)n2)c1 [FB22, 1-[(2-isopropylphenyl)carbamothioyl]-3-[[3-[1-[4-(trifluoromethoxy)phenyl]-1H-1,2,4-triazol-3-yl]phenyl]methyl]urea]
pest or weed control at 50 µg/cm2 [1]: 50 to 100% | pest or weed control at 50 µg/cm2 [2]: 50 to 100%

Cc1ccc(NC(=S)NC(=O)NCc2cccc(-c3ncn(-c4ccc(OC(F)(F)F)cc4)n3)c2)c(C(C)C)c1 [FB23, 1-[(2-isopropyl-4-methyl-phenyl)carbamothioyl]-3-[[3-[1-[4-(trifluoromethoxy)phenyl]-1H-1,2,4-triazol-3-yl]phenyl]methyl]urea]
pest or weed control at 50 µg/cm2 [1]: 50 to 100% | pest or weed control at 50 µg/cm2 [2]: 50 to 100%

CC(C)c1cc(F)ccc1NC(=S)NC(=O)NCc1cccc(-c2ncn(-c3ccc(OC(F)(F)F)cc3)n2)c1 [FB24, 1-[(4-fluoro-2-isopropyl-phenyl)carbamothioyl]-3-[[3-[1-[4-(trifluoromethoxy)phenyl]-1H-1,2,4-triazol-3-yl]phenyl]methyl]urea]
pest or weed control at 50 µg/cm2 [1]: 50 to 100% | pest or weed control at 50 µg/cm2 [2]: 50 to 100%

Cc1ccc(C(C)C)c(NC(=S)NC(=O)NCc2cccc(-c3ncn(-c4ccc(OC(F)(F)F)cc4)n3)c2)c1 [FB25, 1-[(2-isopropyl-5-methyl-phenyl)carbamothioyl]-3-[[3-[1-[4-(trifluoromethoxy)phenyl]-1H-1,2,4-triazol-3-yl]phenyl]methyl]urea]
pest or weed control at 50 µg/cm2 [1]: 50 to 100% | pest or weed control at 50 µg/cm2 [2]: 50 to 100%

CC(C)c1ccc(Cl)cc1NC(=S)NC(=O)NCc1cccc(-c2ncn(-c3ccc(OC(F)(F)F)cc3)n2)c1 [FB26, 1-[(5-chloro-2-isopropyl-phenyl)carbamothioyl]-3-[[3-[1-[4-(trifluoromethoxy)phenyl]-1H-1,2,4-triazol-3-yl]phenyl]methyl]urea]
pest or weed control at 50 µg/cm2 [1]: 50 to 100% | pest or weed control at 50 µg/cm2 [2]: 50 to 100%

Cc1ccccc1N1C(=O)CS/C1=N\C(=O)NCc1cccc(-c2ncn(-c3ccc(OC(F)(F)F)cc3)n2)c1 [FB27, (Z)-1-(4-oxo-3-(o-tolyl)thiazolidin-2-ylidene)-3-(3-(1-(4-(trifluoromethoxy)phenyl)-1H-1,2,4-triazol-3-yl)benzyl)urea]
pest or weed control at 50 µg/cm2 [1]: 50 to 100% | pest or weed control at 50 µg/cm2 [2]: 50 to 100%

COc1ccc(N2C(=O)CS/C2=N\C(=O)NCc2cccc(-c3ncn(-c4ccc(OC(F)(F)F)cc4)n3)c2)c(C)c1 [FB28, (Z)-1-(3-(4-methoxy-2-methylphenyl)-4-oxothiazolidin-2-ylidene)-3-(3-(1-(4-(trifluoromethoxy)phenyl)-1H-1,2,4-triazol-3-yl)benzyl)urea]
pest or weed control at 50 µg/cm2 [1]: 50 to 100% | pest or weed control at 50 µg/cm2 [2]: 50 to 100%

CCc1ccccc1N1C(=O)CS/C1=N\C(=O)NCc1cccc(-c2ncn(-c3ccc(OC(F)(F)F)cc3)n2)c1 [FB29, (Z)-1-(3-(2-ethylphenyl)-4-oxothiazolidin-2-ylidene)-3-(3-(1-(4-(trifluoromethoxy)phenyl)-1H-1,2,4-triazol-3-yl)benzyl)urea]
pest or weed control at 50 µg/cm2 [1]: 50 to 100% | pest or weed control at 50 µg/cm2 [2]: 50 to 100%

CCc1cccc(C)c1N1C(=O)CS/C1=N\C(=O)NCc1cccc(-c2ncn(-c3ccc(OC(F)(F)F)cc3)n2)c1 [FB30, (Z)-1-(3-(2-ethyl-6-methylphenyl)-4-oxothiazolidin-2-ylidene)-3-(3-(1-(4-(trifluoromethoxy)phenyl)-1H-1,2,4-triazol-3-yl)benzyl)urea]
pest or weed control at 50 µg/cm2 [1]: 50 to 100% | pest or weed control at 50 µg/cm2 [2]: 50 to 100%

CC(C)c1ccccc1N1C(=O)CS/C1=N\C(=O)NCc1cccc(-c2ncn(-c3ccc(OC(F)(F)F)cc3)n2)c1 [FB31, (Z)-1-(3-(2-isopropylphenyl)-4-oxothiazolidin-2-ylidene)-3-(3-(1-(4-(trifluoromethoxy)phenyl)-1H-1,2,4-triazol-3-yl)benzyl)urea]
pest or weed control at 50 µg/cm2 [1]: 50 to 100% | pest or weed control at 50 µg/cm2 [2]: 50 to 100%

Cc1ccc(N2C(=O)CS/C2=N\C(=O)NCc2cccc(-c3ncn(-c4ccc(OC(F)(F)F)cc4)n3)c2)c(C(C)C)c1 [FB32, (Z)-1-(3-(2-isopropyl-4-methylphenyl)-4-oxothiazolidin-2-ylidene)-3-(3-(1-(4-(trifluoromethoxy)phenyl)-1H-1,2,4-triazol-3-yl)benzyl)urea]
pest or weed control at 50 µg/cm2 [1]: 50 to 100% | pest or weed control at 50 µg/cm2 [2]: 50 to 100%
